Laboratory results reported in article PMC7423924, “A fluorogenic cyclic peptide for imaging and quantification of drug-induced apoptosis” (Nature Communications, 2020).
Several values for one entry are separate records, joined by “and”; a condition that tells them apart may be missing. Equal values may be shown once.

B1: Annexin-FITC: FITC-labeled annexin V (protein, UniProt P08758 2-320, looked up)
Annexin A5: AQVLRGTVTDFPGFDERADAETLRKAMKGLGTDEESILTLLTSRSNAQRQEISAAFKTLFGRDLLDDLKSELTGKFEKLIVALMKPSRLYDAYELKHALKGAGTNEKVLTEIIASRTPEELRAIKQVYEEEYGSSLEDDVVGDTSGYYQRMLVVLLQANRDPDAGIDEAQVEQDAQALFQAGELKWGTDEEKFITIFGTRSVSHLRKVFDKYMTISGFQIEETIDRETSGNLEQLLLAVVKSIRSIPAYLAETLYYAMKGAGTDDHTLIRVMVSRSEIDLFNIRKEFRKNFATSLYSMIKGDTSGDYKKALLLLCGEDD
modifications: FITC label
notes: FITC-labeled annexin V

How the values were obtained:
human neutrophils = test: CDKi-induced, caspase-dependent neutrophil apoptosis detected with Apo-15; format: cell-based; settings: R-roscovitine 20 µM (CDKi), QVD 10 μM, single replicates Data 1-4
Procedure: First, we confirmed that Apo-15 could detect CDKi-induced apoptosis in vitro. […] Apo-15 staining of CDKi-induced apoptosis was also caspase-dependent as confirmed by a significant reduction in the fluorescent signal after treatment with the caspase inhibitor QVD[34] (Fig. 5a). Next, we induced ALI in vivo in mice by intratracheal administration of E. coli-derived LPS (1 μg per mouse), and the apoptotic load in the lungs relative to saline control was increased by intraperitoneal administration of CDKi AT7519[38] (Fig. 5b). In all mice, we administered Apo-15 in vivo and, 30 min later, we collected bronchoalveolar lavage fluid (BALF) together with lung tissues. BALF and lung slices from LPS-only and LPS + CDKi mice were analyzed by multiparameter flow cytometry to determine the proportion of apoptotic cells that had been stained by Apo-15 in vivo (gating strategy in Supplementary Fig. 15). […] Furthermore, we quantified the effects of CDKi-induced apoptosis in vivo by measuring the percentages of apoptotic neutrophils in total cell counts. […] We confirmed that CD45 + Ly6G+ cells labeled by Apo-15 in vivo were apoptotic by co-staining with AF647-Annexin V ex vivo (Fig. 5d). Next, we acquired fluorescence microscopy images of lung tissue sections from mice under different regimes (Fig. 5c, e). […]

[1] = parameters: method as in 2 sources, ref Table 1 ||| ref [8],[60],[19],[61],[63],[64],[66],[67] = [8]; PMID 19966809; doi:10.1038/nmeth.1405; 8. Kim YE Chen J Chan JR Langen R Engineering a polarity-sensitive biosensor for time-lapse imaging of apoptotic processes and degeneration Nat. Methods 2010 7 67 73 19966809 10.1038/nmeth.1405 PMC284 || [60]; PMID 20671723; doi:10.1038/nprot.2010.101; 60. Kim YE Chen J Langen R Chan JR Monitoring apoptosis and neuronal degeneration by real-time detection of phosphatidylserine externalization using a polarity-sensitive indicator of viability and apo || [19]; PMID 17051335; doi:10.1007/s10495-006-0282-7; 19. Aloya R Molecular imaging of cell death in vivo by a novel small molecule probe Apoptosis 2006 11 2089 2101 17051335 10.1007/s10495-006-0282-7 PMC2782107 || [61]; PMID 16317537; doi:10.1007/s00259-005-1905-x; 61. Damianovich M ApoSense: a novel technology for functional molecular imaging of cell death in models of acute renal tubular necrosis Eur. J. Nucl. Med. Mol. Imaging 2006 33 281 291 16317537 10.1007 || [63]; PMID 15113694; doi:10.1016/j.ab.2004.01.020; 63. Garcia Fernandez MI Ceccarelli D Muscatello U Use of the fluorescent dye 10-N-nonyl acridine orange in quantitative and location assays of cardiolipin: a study on different experimental models Ana; settings: cited from earlier work; for Brightness (φ × ε): Table 1, commercial probes, ref [8],[60],[19],[61],[63],[64],[66],[67]
apoptotic neutrophils = test: Signal-to-noise ratios in imaging of apoptotic neutrophils; format: cell-based, human; settings: apoptotic cells, excitation 488 nm, same settings; response to reviewers
Procedure: Signal-to-noise ratios for apoptotic neutrophils labeled with FITC-Annexin V or Apo-15 were determined after image acquisition under the same laser power and gain and analysis using ImageJ. Briefly, raw images were converted into 16-bit grayscale images and average fluorescence intensities in labeled cells and in the background were measured (≥150 points per condition). Experiments were performed in triplicate.
Supplementary Figure 14. Quantification of the fluorescence signal-to-noise (S/N) ratios in apoptotic neutrophils after staining with Apo -15 (100 nM) or FITC-Annexin V (25 nM) and image acquisition under the same experimental conditions
(excitation/emission filters: 488 nm /525 nm). Data presented as mean values±SEM (n=3-4 independent cells from 3 independent experiments). Source data are provided […]
FIT C, AlexaFluor647). […]
In imaging experiment in mice, the fluorescence signals were not found along membranes in the cells. […]
First, we have included flow cytometric data from BALs of LPS-treated mice that were not given Apo- 15, which conf irm ed the lack of green fluorescence in viable CD45+CD11c+ Annexin V− macrophages (new Supplementary Figure 15 and new Supplementary Figure 18 for the results). […]

Row | Molecule | Apo-15-positive cells (flow cytometry) (human neutrophils) | Brightness (φ × ε) [1] | also measured
1 | CC[C@H](CO)Nc1nc(NCc2ccccc2)c2ncn(C(C)C)c2n1 [CDKi, R-roscovitine] | 57.1 and 64.3 and 39.1 and 90.1 | – | –
2 | CN(C)c1cccc2c(S(=O)(=O)N[C@@H](CSSC[C@H](NS(=O)(=O)c3cccc4c(N(C)C)cccc34)C(=O)O)C(=O)O)cccc12 [N,N′-Didansyl-L-cystin] | – | 3000 | Brightness ([1]; other environmentally-sensitive probes, ref Table 1): 3000 M⁻¹ cm⁻¹
3 | CCCCCCCCC[n+]1c2cc(N(C)C)ccc2cc2ccc(N(C)C)cc21.[Br-] [Nonyl acridine orange] | – | 20,000 | –
4 | CC[N+](C)(CC)CCC[n+]1c(-c2ccccc2)c2cc(N)ccc2c2ccc(N)cc21.[I-].[I-] [PI, propidium iodide] | – | <100 | –
5 | CC(C)[C@H](NC(=O)c1ccc2ccccc2n1)C(=O)N[C@@H](CC(=O)O)C(=O)COc1c(F)cccc1F [QVD] | 3.0 and 7.0 and 2.9 and 4.0 | – | –
6 | B1 | – | – | Signal-to-noise ratio (apoptotic neutrophils): ~100 fold
